Test [1] addresses T1, NK1 (Homo sapiens, UniProt P14210). Briefly: SPR steady-state binding to immobilized NK1 (Biacore T100). The arrangement: made in house; host or cells: Pichia pastoris. To be noted: steady-state binding constants; piperazine-like compounds; immobilized NK1, PBS pH 7.4; read-out: KD in SPR. As to the method:
Binding constants of piperazine-like compounds and fragments were determined using a Biacore T100 instrument. NK1 was immobilized on a CM5 chip by amine coupling to a density of 6000 RU. Compounds were stored as 100 mM stock solutions in water and serial dilutions were prepared in the running buffer (PBS pH 7.4, 0.05% Tween 20). The compound solutions were injected onto the surface of the chip at a flow rate of 30 μL min^–1, contact time was 1 min and dissociation time 1 min. Sensorgrams were analysed using the Biacore T100 evaluation software and the binding constants determined.

Test [2] deals with MET downstream signalling (Erk 1/2, Akt) in Vero cells. Put plainly: MET, Erk1/2 and Akt phosphorylation assay in NK1-stimulated Vero cells (Western blot). It is filed as cell-based. To be noted: Vero cells stimulated with NK1. As to the method:
We evaluated the effect of piperazine-like compounds and MB605 on Vero cells by assessing MET, Erk 1/2 and Akt phosphorylation in response to stimulation using […] NK1. MB605 was dissolved in DMSO, which limited the range of concentrations tested to ≤1 mM in order to avoid solvent effects on cell function/viability. The water-soluble piperazine-like compounds, in contrast, could be tested at concentrations up to 100 mM.
Fig. 6 Biological activity of the piperazine-like compounds and MB605. (a–e) Vero cells expressing the receptor endogenously on their cell surface were stimulated with HGF/SF or NK1 and phosphorylation of MET and downstream targets Akt and Erk1/2 was analysed. Piperazine-like compounds HEPES (a), (H)EPPS (b), MES (c), MOPS (d) and CAPS (e) were tested at 100 mM (lanes 4), 10 mM (lanes 5), 1 mM (lanes 6) and 100 μM (lanes 7) concentration in the presence of 1 nM NK1. To control for activating or inhibiting effects of the compounds independently of MET, piperazine-like compounds were tested on cells at 100 mM without stimulation by NK1 (lanes 3). Biological activity of MB605 (f) was investigated at 1 mM (lane 5), 100 μM (lane 6) and 10 μM (lane 7) in the presence of a constant concentration of DMSO (0.1%). A solvent control (0.1% DMSO, lane 3) was included in order to account for the effect of DMSO on the cells. A positive control (1 nM NK1 in the presence of 0.1% DMSO) is shown in lane 4. In all experiments, un-stimulated cells served as negative control (lanes 1) while cells stimulated with 1 nM NK1 served as positive control (lanes 2).
The ability of MB605 and the piperazine-like compounds to inhibit MET, Erk and Akt phosphorylation in the presence of NK1 was tested using mammalian Vero cells as described by Ferraris et al.[47] and further details are given in the ESI ^† section of the manuscript. […]
For MET, Erk1/2 and Akt phosphorylation assays, Vero cells were seeded at 2.1 × 10^5 cells we ll -1 (2 ml we ll -1) in 6-well plates and grown to 90% conf luence in 10% FCS/DMEM media and then switched to serum-free medium (to avoid any growth f actors present in the serum).
24 hours post starvation the cells were stimulated for 5 min at 37°C with each individual piperazine -like compounds as well as with NK1 (1 nM) pre-incubated with different concentrations of the piperazine- like compounds (100 mM, 10 mM, 1 mM and 100 μM) or MB605 (1 mM, 100 μM and 10 μM). Stimulations with either 0. 1% DMS O or 1 nM of NK1 […]
solution were used as a negative and a positive control, respectively. The cells were then washed in PBS buffer, lysed on ice f or 30 min and frozen at -80 °C until further analysis. For

The target in test [3] is T1, NK1. Briefly: 1H-15N TROSY-HSQC NMR chemical shift titration of 15N-labelled NK1. It is filed as binding. The arrangement: made in house; host or cells: Pichia pastoris. As to conditions: steady-state binding constants; piperazine-like compounds; 0.18 mM NK1, pH 7.2, 310 K; read-out: KD in NMR. Here is the method:
Ligand screening was performed by monitoring the chemical shift variations in ^1H-^15N TROSY-HSQC NMR spectra of the uniformly [^15N]-labelled NK1 protein (Fragai et al. 2015, in prep.) upon the addition of increasing concentrations of the investigated compounds.[43]–[45] The experiments were performed using 0.18 mM protein samples in 25 mM Tris, 100 mM NaCl and 0.01% sodium azide, at pH 7.2 with 10% D2O. The spectra were recorded at 310 K on a Bruker AVANCE 900 MHz spectrometer equipped with a TXI cryo-probe. Sample solutions were prepared from 1 M or 100 mM DMSO stock solutions of the ligands. The dissociation constant values (KD) were calculated by plotting the weighted average ^1H and ^15N chemical shifts of the residues experiencing significant variations as a function of ligand concentration added during the titration and considering the one site binding model.[46]

Test [4] has as its target T1, NK1. Put plainly: Binding of lysine analogues to NK1 (unpublished data). As to conditions: A. G. S.
Test [5] has as its target T2, lysine-binding pocket of the kringle domain of NK1 (Homo sapiens, UniProt P14210).
T2 construct: made in house; host or cells: Pichia pastoris
Put plainly: Soaking into NK1 apo crystals, X-ray crystallography. To be noted: soaked into NK1 apo crystals. Here is the method: Next, three classes of piperazine-like sulphonated compounds containing piperazine ((H)EPPS and PIPES), morpholine (MES and MOPS), or cyclohexane (CHES and CAPS) rings were studied for their binding to NK1 (Table 1), alongside another five sulphonated compounds selected from a chemical fragment library (Table 2).
NK1 buffered in 150 mM NaCl, 50 mM Tris, pH 7.5 (apo-NK1 and all soaking experiments) was concentrated to ∼20 mg mL^–1 using a Vivaspin device with a 10 kDa cut-off membrane (Sartorius Biolab). Crystallisation was carried out in Linbro plates by the vapour diffusion hanging drop technique using a protein : precipitant ratio of 1 : 1 at 20 °C. Previously NK1 has been crystallised in 18% PEG 4000, 200 mM sodium acetate and 150 mM Tris pH 8.5 as precipitant.[19] Here final crystallisation conditions (19% PEG 4000, 200 mM sodium acetate and 150 mM Tris pH 7.5) were optimised around those to achieve high-resolution apo structure. Details of compound soaking, X-ray data collection and structure determination are given in the ESI ^† section of the manuscript. […]
For this, 1 M stock solutions were prepared in DMSO (fragments) or water (piperazine- like compounds) and the pH adjusted to a value within their buffering range with either HCl or NaOH. The seven piperazine- like compounds and their respective pH are: HEPES (pH 7.6), (H)EPPS (pH 7.4), PIPES (pH 7.0), MES (pH 5.8), MOPS (pH 7.2), CHES (pH 8.6) and CAPS (pH 9.7). Secondary stocks of the compounds at 50 mM were prepared in the […]
respective mother liquor and soaked for up to 48 hours.
MB605 was solubilised in 50% DMSO at 20 mM concentration (1% f inal DMSO concentration in the drop) in order to minimize adverse effects of DMSO on the protein crystal. 25% ethylene glycol was used as the cryoprotective agent.
X-ray data collection and processing
X-ray datasets were collected either at the European Synchrotron Radiation Facility (ESRF, Grenoble, France), the Diamond Light Source (DLS, Oxford, UK) or in-house using the X8 PROTEUM (Bruker AXS) at the Department of Biochemistry, University of Cambridge.
Datasets of at least 180° were collected. Raw data collected at synchrotrons were integrated, merged, scaled and reduced using DENZO and […].2 Raw data […]
collected in- house were integrated, merged, scaled and reduced using the PROTEUM 2 software package .3 The CCP4 suite of crystallographic programs (Collaborative

The subject of test [6] is NK1-MET complexes. More on the design: method as in Lauris Kemp, personal communication. To be noted: buffers containing 50 mM HEPES; ref Lauris Kemp, personal communication; cited from earlier work.

Molecules are shown by their SMILES.

T1 sequence (P14210 32-210 isoform P14210-6 limits assumed): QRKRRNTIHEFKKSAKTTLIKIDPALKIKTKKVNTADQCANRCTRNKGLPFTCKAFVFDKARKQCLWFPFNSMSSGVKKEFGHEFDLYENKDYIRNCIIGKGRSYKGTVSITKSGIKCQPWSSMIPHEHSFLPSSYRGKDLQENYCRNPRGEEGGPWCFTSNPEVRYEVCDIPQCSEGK
T2 sequence (P14210 32-210 isoform P14210-6 limits assumed): as above

For orientation: Kd means the constant that tells how readily two partners part at equilibrium. With `O=S(=O)(O)CCCN1CCN(CCO)CC1` [(H)EPPS], the Kd worked out at 7 ± 1 mM in test [1] and 4.4 ± 1.8 mM in test [3]. For the same compound, in test [2] (compound 100 mM (lanes 4)), the “Inhibition of phosphorylation of Erk 1/2 and Akt (S473)” value (“Inhibition” below) was “Inhibition of phosphorylation”.
On to `NC[C@H]1CC[C@H](C(=O)O)CC1` [AMCHA, trans-4-(aminomethyl)cyclohexane-1-carboxylic acid], for which the “binding to NK1” value in test [4] was “neither EACA or AMCHA binds NK1”.
Consider `O=S(=O)(O)CCCNC1CCCCC1` [CAPS], for which the Kd in test [1] was 1.2 ± 0.2 mM; in test [3] it was 1.4 ± 0.5 mM. The “binding in the lysine-binding pocket (crystal structure)” value (“binding in the lysine-binding pocket” below) in test [5] is on record as “bind the lysine-binding pocket of NK1”. Further, the figures for the “Inhibition” value in test [2] (compound 10 mM (lane 5)) and in test [2] (compound 100 mM (lanes 4)) were “active” and “Inhibition of phosphorylation”, respectively.
As to `O=S(=O)(O)CCNC1CCCCC1` [CHES], the values for the Kd in test [1] and in test [3] were 30.2 ± 3.1 mM and 15.7 ± 4.5 mM, respectively. Besides, in test [5], the “binding in the lysine-binding pocket” value is “bind the lysine-binding pocket of NK1”.
With `NCCCCCC(=O)O` [EACA, ε-aminocaproic acid], in test [4], the “binding to NK1” value is “neither EACA or AMCHA binds NK1”.
Consider `O=S(=O)(O)CCN1CCN(CCO)CC1` [HEPES, 4-(2-hydroxyethyl)-1-piperazineethanesulfonic acid], for which the Kd in test [1] amounted to 2.4 ± 0.4 mM; in test [3] it was 3.3 ± 0.4 mM. Further, the “binding in the lysine-binding pocket” value in test [5] is recorded as “bound into the lysine-binding pocket”. In addition, the “Inhibition” value in test [2] (compound 100 mM (lanes 4)) is on record as “Inhibition of phosphorylation”. In addition, in test [6], the “formation of NK1-MET complexes” value is given as “inhibited”.
Take `O=S(=O)(O)CCN1CCOCC1` [MES]: the figures for the Kd in test [1] and in test [3] were 24.3 ± 3.1 mM and 13.4 ± 5.7 mM, respectively. The “binding in the lysine-binding pocket” value in test [5] is “bind the lysine-binding pocket of NK1”. In test [2] (compound 100 mM (lanes 4)), the “Inhibition” value was “Inhibition of phosphorylation”.
For the compound `O=S(=O)(O)CCCN1CCOCC1` [MOPS], the values for the Kd in test [1] and in test [3] were 7 ± 1 mM and 4.7 ± 1.7 mM, respectively. Also, the “binding in the lysine-binding pocket” value in test [5] is on record as “bind the lysine-binding pocket of NK1”. Also, the “Inhibition” value in test [2] (compound 100 mM (lanes 4)) is listed as “Inhibition of phosphorylation”.

The record behind these values is paper PMC6054100, “Exploring the chemical space of the lysine-binding pocket of the first kringle domain of hepatocyte growth factor/scatter factor (HGF/SF) yields a new class of inhibitors of HGF/SF-MET binding” (Chemical Science, 2015).
